Measured values taken from patent US6660910B1, “Selection marker” (Syngenta Mogen B.V., priority 1997, dated 2003).

Assays:
Format in all cases: cell-based
[1] = system: non-morphogenic cell suspensions of Oryza sativa cv. IR 52; assay: Rice transformation by particle gun with cyanamide or hygromycin selection
Procedure: Described below is the method used for transformation of non-morphogenic cell suspensions of Oryza sativa cv. IR 52 using a particle inflow gun (PIG) according to Finer et al. (Plant Cell Rep. 11, 323-328, 1992).
A long-term, non-morphogenic suspension culture of Oryza sativa cv. IR 52 was subcultured in weekly intervals in liquid LS-4 (Linsmaier and Skoog, Physiol. Plant. 18, 100-127, 1962) medium and maintained on a rotary shaker (110 rpm) at 28° C. in the dark. (The contents of the LS-4 medium can be found in Table Z). 3-4 days after the last subculture 1.5 ml of this cell suspension (appro. 1.5×10^6 cells) were evenly spread on a filter paper (Whatman no 4) which was subsequently placed on solidified LS-4 medium and cultivated in the dark at 28° C. for 24 h and directly used for bombardment thereafter. For microprojectile bombardment a home-made particle inflow gun (PIG) according to Finer et al. (1992) was used. 300 μg tungsten particles coated with either pMOG 617 (35S-gus and 35S-hyg) or pMOG 873 (35S-cah) were loaded on a particle support. The particles were accelerated by a 2.5 bar helium pulse and had to pass a 500 μm metal stop screen, placed 2 cm under the particle support. The suspension cells were placed 15 cm under the particle support. The PIG was evacuated to 30 mbar before bombardment. After bombardment the cells were cultured at 28° C. in the dark for 3 days. Then the filters with the cells were transferred to solid LS-4 medium containing various concentrations of cyanamide or 50 mg/l hygromycinB (see table 6). The subculture was repeated every 9 days. Resistant microcalli that were visible after 4-6 weeks were transferred to fresh LS-4 medium containing the respective selective agent. From two experiments 7+41 calli transformed with pMOG617 were found resistant to hygromycin, while for the transformation with pMOG873 7 calli survived cyanamide 20 mg/l in the first experiment (results from the second experiment not yet available) and 0+4 calli remained viable on 40 mg/l cyanamide. […] The transgenic nature was confirmed by testing parts of the developing callus for the presence of the DNA in the callitransformed with pMOG873.

[2] = system: BMS cells; assay: Maize killing curve; details: for Observations (light microscope) / % dead cells (light microscope): Day 15; for % dead cells (light microscope): clumps of cells
Procedure: Stock solutions of cyanamide were prepared in water at 10 and 100 mg/ml and filter sterilised. Aliquots were stored at −20° C. Media were prepared by adding MS medium (4.4 g), sucrose (20 g), 2,4-D (2.0 mg) and agar (8 g) to 1 litre of water. […] BMS liquid was prepared as above minus agar. BMS cells were added to media containing cyanamide in three ways:
a. BMS cell suspension added to falcon tube and liquid removed. Then the BMS cells were arranged on the surface of the agar in clumps of approximately 5 mm in diameter, 5 clumps per plate, 3 plates per concentration, while on the base of each petri dish the outline of each clump was marked;
b. Approximately 0.5 ml pack cell volume plus 1.5 ml BMS liquid added to surface of agar and the cells were spread finely over surface of agar. Three plates per treatment were set up.
c. Approximately 0.5 ml pack cell volume plus 1.5 ml BMS liquid were added to filter paper overlying agar. Cells were spread evenly over surface of filter. One plate per treatment was set up.
The plates were sealed with micropore tape and incubated at 25° C. in the dark. […]
Samples were taken from the clumps of cells on all levels of cyanamide for observation under a light microscope. With increasing levels of cyanamide there were increasing numbers of dead cells where the cell contents had shrunk away from the cell wall, and an increase in the number of dark bodied starch grains. Cells were observed resuspended in water and with FDA stain under UV light.

[3] = system: regenerable embryogenic suspension of Grand nain; assay: Kill curves in banana (Musa); details: for % Live cells as assessed by FDA: 21 days; for % Callus Growth: approximate visual estimate
Procedure: To test the potential of cyanamide as a selection agent for transformation in banana two kill curves were set up with a regenerable embryogenic suspension of Grand nain 6 day old embryogenic suspension (Ed6b) cultures, subbed routinely in M2 2,4D liquid, containing 4.32 g/l MS salts, 45 g/l sucrose, standard 1×concn. MS vitamins, 100mg/l glutamine, 100 mg/l myo-inositol, 100 mg/l biotin, 100mg/l malt extract at pH 5.3 and added after autoclaving 1.2 mg/l 2,4-D and 0.8 mg/l picloram.
Cultures were sieved (>250μ, <710μ) and aliquots of approx 50 μl sieved culture in 300μl volume of liquid were pipetted onto two kill curve media as detailed below (3 reps per plate). Culture growth and survival were monitored over the following 3 weeks and cell survival assessed after 21 days via FDA staining.
Kill Curve Medium A : M2/MS/1.0 2,4-D (as M2/MS/2,4-D except only 1.0 mg/l 2,4-D, no picloram and +2.25 g/l gelrite): this medium promotes the rapid division and growth of embryogenic callus, but not embryos. Kill Curve Medium B : M2/SH/0.5Pic, 0.5 2,4-D (as M2/MS/2,4-D except only 0.5 mg/l 2,4-D and 0.5 mg/l picloram, SH salts (4.32 g/1) instead of MS, +2.25 g/l gelrite): This medium promotes the early development of embryos which can be matured and germinated by transfer to alternative media.
Cyanamide was added to both media types, after autoclaving, to concentrations of 0,20,30,50,75,100,150 mg/l.

[4] = Medium M2/MS/2,4-D, cyanamide 20 mg/l
[5] = Medium M2/MS/2,4-D, cyanamide 30 mg/l
[6] = Medium M2/MS/2,4-D, cyanamide 50 mg/l
[7] = Medium M2/MS/2,4-D, cyanamide 75 mg/l
[8] = Medium M2/MS/2,4-D, cyanamide 100 mg/l
[9] = Medium M2/MS/2,4-D, cyanamide 150 mg/l
[10] = Medium M2/SH/0.5Pic +0.5 2,4-D, cyanamide 20 mg/l
[11] = Medium M2/SH/0.5Pic +0.5 2,4-D, cyanamide 30 mg/l
[12] = Medium M2/SH/0.5Pic +0.5 2,4-D, cyanamide 50 mg/l
[13] = Medium M2/SH/0.5Pic +0.5 2,4-D, cyanamide 75 mg/l
[14] = Medium M2/SH/0.5Pic +0.5 2,4-D, cyanamide 150 mg/l

N#CN [Cyanamide]
Callus formation ([1]; 50 mg/l cyanamide or higher): No calli were formed | Calli that remained viable ([1]; pMOG873 (35S-cah), 40 mg/l cyanamide, two experiments): 0+4 | Calli that survived ([1]; pMOG873 (35S-cah), cyanamide 20 mg/l, first experiment): 7 | Surviving calli positive in a PCR experiment on the cah-gene ([1]; pMOG873, 40 mg/l cyanamide): One of the 4 | Observations (light microscope) ([2]; 10 mg/l): Signs of stress. | % dead cells (light microscope) ([2]; 10 mg/l): Approx 5% dead. | Growth of BMS cells ([2]; 10 mg/l, after 15 days): reduction in growth of BMS cells on 10 mg/l was still very clear | Observations (light microscope) ([2]; 30 mg/l): Striking differences from control cells. | % dead cells (light microscope) ([2]; 30 mg/l): Approx 15-20% dead. | Growth of BMS cells ([2]; 50 mg/l plus, after 15 days): showed no signs of growth | Observations (light microscope) ([2]; 50 mg/l): Increasing number of dead cells and accumulation of starch | % dead cells (light microscope) ([2]; 50 mg/l): Approx 50% dead. | Observations (light microscope) ([2]; 100 mg/l): Majority of cell dead. | % dead cells (light microscope) ([2]; 100 mg/l): Approx 90% dead. | Observations (light microscope) ([2]; 150 mg/l): Majority of cells dead. | % dead cells (light microscope) ([2]; 150 mg/l): Approx 95-98% dead. | Colour of BMS cells ([2]; all levels of cyanamide, after 8 days): no browning of cells was observed | Growth of BMS cells ([2]; cells spread over surface of media, 10 mg/l, after 8 days): significant reduction in growth | Cell density of BMS cells ([2]; cells spread over surface of media, 30 mg/l, after 8 days): slight increase in cell density | Growth of BMS cells ([2]; clumps and cells spread over agar, 30 mg/l plus, after 15 days): notable reduction in growth | Growth of BMS cell clumps ([2]; clumps on agar, 10 mg/l, after 8 days): had not outgrown their outline but the height of the clumps had increased | Cyanamide concentration with maximum effect on growth ([2]; clumps on agar, after 8 days): 50 mg/L | Growth of BMS cell clumps ([2]; repeated experiment, 10 mg/l): slight reduction in growth | Colour of BMS cell clumps ([2]; repeated experiment, above 50 mg/l): slight orange tinge | Growth of BMS cells ([2]; repeated experiment, cells spread over agar or on filters, 10 mg/l): slight growth (approximately doubling of the number of original cells) | Growth of BMS cells ([2]; repeated experiment, cells spread over agar or on filters, 20 mg/l and higher): limited of growth | Growth of BMS cell clumps ([2]; repeated experiment, from 20 mg/l on): showed no outgrowing from their original outline | Concentration up to which there is no significant visual browning of cultures and release of phenolics [3]: > 75 mg/L | inhibition at 20 µg/mL ([3]; 20 mg/l, read-out: Inhibition of the growth of embryogenic callus): 40 to 50% | % Live cells as assessed by FDA [3, 4]: 60% | % Callus Growth [3, 4]: +30% | % Live cells as assessed by FDA [3, 5]: 50% | % Callus Growth [3, 5]: +20% | % Live cells as assessed by FDA [3, 6]: 20% | % Callus Growth [3, 6]: 0% | % Live cells as assessed by FDA [3, 7]: 10% | % Callus Growth [3, 7]: 0% | % Live cells as assessed by FDA [3, 8]: 10% | % Callus Growth [3, 8]: 0% | % Live cells as assessed by FDA [3, 9]: 0% | % Callus Growth [3, 9]: 0% | Embryos Formed (average) [3, 10]: 0 | % Live cells as assessed by FDA [3, 10]: 50% | Embryos Formed (average) [3, 11]: 0 | % Live cells as assessed by FDA [3, 11]: 40% | Embryos Formed (average) [3, 12]: 0 | % Live cells as assessed by FDA [3, 12]: 30% | Embryos Formed (average) [3, 13]: 0 | % Live cells as assessed by FDA [3, 13]: 20% | Embryos Formed (average) ([3]; Medium M2/SH/0.5Pic +0.5 2,4-D, cyanamide 100 mg/l): 0 | Embryos Formed (average) [3, 14]: 0 | % Live cells as assessed by FDA [3, 14]: 0% | Embryogenesis ([3]; lowest concentration tested (20 mg/l)): totally inhibited
